Results taken from PubChem BioAssay AID1552 (Sanford-Burnham Center for Chemical Genomics, 2009).
Activity calls are given as the source filed them. How the calls were made is not given here.

These compounds were tested against Ubiquitin-conjugating enzyme E2 N (Homo sapiens) (UniProt P61088) (assay: UBE2N binders by NMR, biophysical, purified protein (AID 1552)). Details: NMR binding to purified UBE2N.
Chain of Ubiquitin-conjugating enzyme E2 N (Homo sapiens) (P61088 whole entry, looked up): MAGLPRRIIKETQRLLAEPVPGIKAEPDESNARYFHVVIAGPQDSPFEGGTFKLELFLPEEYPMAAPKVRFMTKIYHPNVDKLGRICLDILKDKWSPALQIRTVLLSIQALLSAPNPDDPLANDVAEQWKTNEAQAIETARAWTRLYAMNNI
With `CCCc1cc(=O)[nH]c2nnc(SCC(C)=O)n12` the Kd was > 4 mM (inactive).
With `CC(C)c1c(O)ccc2c1CCC1[C@@](C)(C=O)CCC[C@]21C` (stereo not given in full) the Kd was > 4 mM (inactive).
For `CC(CCC(=O)O)[C@H]1CCC2C3CC[C@@H]4C[C@H](O)CC[C@]4(C)C3CC[C@@]21C` (stereo not given in full), the Kd was > 4 mM (inactive).
`O=C(c1ccc2c(c1)OCO2)N1CCC2(CC1)OCCO2` was tested, and the Kd was > 4 mM (inactive).
`Cc1nn2c(=O)nc3sc4c(c3c2[nH]c1=O)CCCC4` was tested, and the Kd was > 4 mM (inactive).
In the case of `O=c1c2ccccc2nc2n1CCCCN2`, the Kd is reported as > 4 mM (inactive).
For `CC(=O)CC1(O)C(=O)Nc2ccccc21` (stereo not given), the Kd was > 4 mM (inactive).
With `Cc1occc1C(=O)Nc1nnc(C(F)(F)F)s1` the Kd was > 4 mM (inactive).
For `Nc1ccccc1N=C1CNC(=O)C1`, the Kd was > 4 mM (inactive).
In the case of `O=C1c2ccccc2C(=O)N1OCc1ccccc1`, the Kd is reported as > 4 mM (inactive).
For `Cc1c(C(=O)Nn2cnnc2)oc2ccccc12`, the Kd was > 4 mM (inactive).
For `Cc1c(C)[n+](=O)c(-c2cccs2)c(C)n1[O-]`, the Kd was > 4 mM (inactive).
In the case of `CCCCCCCCCCCCCc1ccco1`, the Kd is reported as > 4 mM (inactive).
`Cc1ccc(NC(=O)C2CCN(S(C)(=O)=O)CC2)cc1` was tested, and the Kd was > 4 mM (inactive).
In the case of `CCOC(=O)c1cc(C)[nH]n1`, the Kd is reported as > 4 mM (inactive).
For `CC1CCC2(OC1)OC1CC3C4CCC5C[C@@H](O)CCC5(C)C4=CCC3(C)C1[C@@H]2C` (stereo not given in full), the Kd was > 4 mM (inactive).
For `CCOC(=O)c1csc(C2COc3ccccc3O2)n1` (stereo not given), the Kd was > 4 mM (inactive).
`CCOC(=O)C1CCN(c2ncnc3nc[nH]c23)CC1` was tested, and the Kd was > 4 mM (inactive).
`COc1ccc(S(=O)(=O)NCCO)cc1` was tested, and the Kd was > 4 mM (inactive).
For `Nc1nc(-c2ccccc2)cc(=O)[nH]1`, the Kd was > 4 mM (inactive).
In the case of `O=c1[nH]oc2ccccc12`, the Kd is reported as > 4 mM (inactive).
`CS(=O)(=O)N1CCN(C(=O)c2ccccc2)C1` was tested, and the Kd was > 4 mM (inactive).
With `Nc1ccc(N2CCCCC2)cc1` the Kd was > 4 mM (inactive).
In the case of `O=S(=O)(NCc1ccco1)N1CCOCC1`, the Kd is reported as > 4 mM (inactive).
In the case of `CC(=O)OC1CCC2(O)CC1(C)CCC1C2CC1(C)C` (stereo not given), the Kd is reported as > 4 mM (inactive).
With `CCn1ccc(C(=O)Nc2nccs2)n1` the Kd was > 4 mM (inactive).
`COc1cc2cc[n+]3cc4c(OC)c(OC)ccc4cc3c2cc1OC` was tested, and the Kd was > 4 mM (inactive).
With `OCc1ccc(-c2cccs2)s1` the Kd was > 4 mM (inactive).
With `COc1ccc2c(c1)OCc1c-2oc2cc(OC)ccc12` the Kd was > 4 mM (inactive).
For `CN(C)C(=O)CSc1nc(N)cc(=O)[nH]1`, the Kd was > 4 mM (inactive).
`CCOCC(=O)N1CCc2ccccc21` was tested, and the Kd was > 4 mM (inactive).
`COc1cc(C(=S)N2CCC(C(N)=O)CC2)ccc1O` was tested, and the Kd was > 4 mM (inactive).
With `c1cncc(C2CCCCN2)c1` (stereo not given) the Kd was > 4 mM (inactive).
`CC1(C)C(=O)N(O)C(C)(C)C(=O)N1O` was tested, and the Kd was > 4 mM (inactive).
In the case of `COc1ccc2c3c([nH]c2c1)C(C)=NCC3`, the Kd is reported as > 4 mM (inactive).
`C/C=C(/C)C(=O)O[C@@H]1Cc2c(ccc3ccc(=O)oc23)OC1(C)C` was tested, and the Kd was > 4 mM (inactive).
In the case of `CN1C(CC(=O)c2ccccc2)CCCC1CC(O)c1ccccc1` (stereo not given), the Kd is reported as > 4 mM (inactive).
`NS(=O)(=O)c1ccc(N2CCCC2=O)cc1` was tested, and the Kd was > 4 mM (inactive).
For `O=C(O)C(O)C(O)C(O)C(O)C(=O)O` (stereo not given), the Kd was > 4 mM (inactive).
In the case of `S=C(Nc1ccccc1)Nc1nncs1`, the Kd is reported as > 4 mM (inactive).
With `O=C1CCC(=O)N1c1ccc(O)cc1` the Kd was > 4 mM (inactive).
In the case of `COc1cc2ccc(=O)oc2c(OC)c1OC`, the Kd is reported as > 4 mM (inactive).
For `O=C(O)CCC1=C2c3ccccc3CCN2C(=O)CC1`, the Kd was > 4 mM (inactive).
For `c1ccc(Cc2nnc3sc(-c4ccncc4)nn23)cc1`, the Kd was > 4 mM (inactive).
`CS(C)=C1C(=O)NC(=O)N(Cc2ccc(F)cc2)C1=O` was tested, and the Kd was > 4 mM (inactive).
For `Cc1nc2cc(NC(=O)Nc3nccs3)ccc2n1C`, the Kd was > 4 mM (inactive).
With `COC(=O)c1cc(-c2c(C)nn(-c3ccccc3)c2C)n[nH]1` the Kd was > 4 mM (inactive).
In the case of `NC(=O)Cc1nc(-c2ccc(F)cc2)cs1`, the Kd is reported as > 4 mM (inactive).
With `CCOC(=O)c1cnn2ccccc12` the Kd was > 4 mM (inactive).
In the case of `CP(C)(=O)CCC(=O)O`, the Kd is reported as > 4 mM (inactive).
For `CCn1cnc2cc(NCc3ccncc3)ccc21`, the Kd was > 4 mM (inactive).
For `CNS(=O)(=O)c1cccs1`, the Kd was > 4 mM (inactive).
In the case of `NC(=O)CSc1ccc(-c2ccccc2)nn1`, the Kd is reported as > 4 mM (inactive).
With `NC(=O)CNC(=O)c1ccc2ccccc2n1` the Kd was > 4 mM (inactive).
In the case of `CS(=O)(=O)Nc1ccc(C(=O)N2CCCCC2)cc1`, the Kd is reported as > 4 mM (inactive).
For `O=C(Nc1ccc2c(c1)OCO2)c1cccc(F)c1`, the Kd was > 4 mM (inactive).
In the case of `CC(C)NC(=O)c1nc2ccccc2s1`, the Kd is reported as > 4 mM (inactive).
For `OCCCc1nc2ccccc2[nH]1`, the Kd was > 4 mM (inactive).
`O=C1CC(N2CCC(O)CC2)C(=O)N1c1ccc(F)cc1` (stereo not given) was tested, and the Kd was > 4 mM (inactive).
In the case of `NCC(=O)c1ccccc1`, the Kd is reported as > 4 mM (inactive).
